# Literature values, collected in publication PMC10184130.
# Settings: likely due to the basic amidine moiety; cited from earlier work
compound,measurement,value
CSc1sc(C(=N)N)cc1S(=O)(=O)c1cccc(-c2c(C)cccc2NC(=O)CCCS(C)(=O)=O)c1 [Compound 1],in vivo pharmacokinetics (PK) properties,poor
